Experimental data published in PubChem BioAssay AID364 (The Scripps Research Institute Molecular Screening Center, 2006).
The source made the active and inactive calls.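 The calls were made as follows: active = concentration giving half-maximal inhibition at or below 20 micromolar; inactive = half-maximal concentration above 20 micromolar, or not dose tested.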

What follows are compounds tested on Jurkat E6.1 viability, ATP luminescence, 48 h (assay: cytotoxicity toward Jurkat T cells, primary screen, cell-based, Jurkat E6.1, NIH starter set (AID 364)).

Compound | CC50
Cn1c(Cl)cnc1C1CC(=O)c2cc(Cl)ccc2O1 (configuration not stated) | 7.3 µM
COc1ccc(C(=O)C(CN2CCCC2)c2ccccc2)cc1 (configuration not stated) | 7.21 µM
COc1cccc(Cn2c(NCc3ccco3)nc3c2c(=O)n(C)c(=O)n3C)c1 | 2.55 µM
COc1ccc(Nc2cc(C)nc(-n3nc(C)cc3C)n2)cc1 | 0.188 µM
CC1(c2ccccc2)NCCN2C(=O)CSC21 (configuration not stated) | > 20 µM (inactive)
C[C@H]1CCC/C=C/C2C[C@H](O)CC2[C@H](O)/C=C/C(=O)O1 (some centres not stated) | 0.368 µM
CCN(CC)c1ccc(-c2nn3c(-c4cccnc4)nnc3s2)cc1 | 3.27 µM
Cc1ccc2nc(NCc3ccccc3)[nH]c2c1 | 3.24 µM
CCCOc1ccc2nc(NC(=O)OC)[nH]c2c1 | 0.178 µM
CO[C@H]1C[C@@H]2CC[C@@H](C)[C@@](O)(O2)C(=O)C(=O)N2CCCC[C@H]2C(=O)O[C@H]([C@H](C)C[C@@H]2CC[C@@H](O)[C@H](OC)C2)CC(=O)[C@H](C)C=C(C)[C@@H](O)[C@@H](OC)C(=O)[C@H](C)C[C@H](C)C=CC=CC=C1C | > 20 µM (inactive)
Nc1nc(Cl)nc2c1ncn2[C@H]1C[C@H](O)[C@@H](CO)O1 | 1.81 µM
COC(=O)Nc1nc2ccc(Sc3ccccc3)cc2[nH]1 | 0.574 µM
COc1ccc(CCn2c(=N)c(C#N)cc3c(=O)n4ccccc4nc32)cc1 | > 20 µM (inactive)
COc1cccc2c(=O)c(SC(F)(F)C(F)C(F)(F)F)c(C)[nH]c12 (configuration not stated) | 5.13 µM
CC(=O)O[C@@]12CO[C@@H]1C[C@H](O)[C@@]1(C)C(=O)[C@H](O)C3=C(C)[C@@H](OC(=O)[C@H](O)[C@@H](NC(=O)OC(C)(C)C)c4ccccc4)C[C@](O)([C@@H](OC(=O)c4ccccc4)[C@H]21)C3(C)C | 0.0556 µM
COc1cccc(C2=CC(c3ccccc3)n3nnnc3N2)c1 (configuration not stated) | 1.77 µM
CC(NC(=O)Nc1nnc(C(F)(F)F)s1)(C(F)(F)F)C(F)(F)F | 2.59 µM
N=c1c2c(-c3ccccc3)c(-c3ccccc3)n(Cc3ccccc3)c2ncn1CCCn1ccnc1 | 19.9 µM
c1cc2c(cc1C1=Nn3c(nnc3C3CCCCC3)SC1)OCO2 | 6.93 µM
COc1ccccc1-c1nnc2n1N=C(c1ccc(O)c(O)c1)CS2 | 0.0582 µM
COc1cccc2c1C(=O)c1c(O)c3c(c(O)c1C2=O)C[C@@](O)(C(=O)CO)C[C@@H]3O[C@H]1C[C@H](N)[C@H](O)[C@H](C)O1 | 0.261 µM

Compound | CC50
COc1ccc(OC)c(NS(=O)(=O)c2ccc(N3CCCC3=O)cc2)c1 | 0.193 µM
COc1cccc(N2CCN(c3ncnc4c3[nH]c3ccc(F)cc34)CC2C)c1 (configuration not stated) | 2.27 µM
CC(C)NCc1c(O)c(Br)cc2oc3c(c12)CCCC3 | > 20 µM (inactive)
c1ccc2c(c1)CCN(c1ncnc3c1[nH]c1ccccc13)C2 | 1.55 µM
N#CC1=C(SCC(=O)c2ccc(Br)cc2)NC2=C(C(=O)CCC2)C1c1ccco1 (configuration not stated) | 3.05 µM
CC[C@H]1CN2CCc3cc(OC)c(OC)cc3[C@@H]2C[C@@H]1C[C@H]1NCCc2cc(OC)c(OC)cc21 | 0.0582 µM
c1coc(CNc2ncnc3ccccc23)c1 | 2.4 µM
CCCCCOc1ccc(C(=O)NCC(=O)NCC(=O)OCC)cc1 | > 20 µM (inactive)
CC[C@]1(O)C[C@@H]2CN(CCc3c([nH]c4ccccc34)[C@@](C(=O)OC)(c3cc4c(cc3OC)N(C)[C@H]3[C@@](O)(C(=O)OC)[C@H](OC(C)=O)[C@]5(CC)C=CCN6CC[C@]43[C@@H]65)C2)C1 | 0.0136 µM
COc1cccc(NC(=O)CSC2=C(C#N)C(c3ccco3)C3=C(CCCC3=O)N2)c1 (configuration not stated) | 4.73 µM
CC(=O)/C(C#N)=C1\NC(=O)C(Cc2ccccc2)S1 (configuration not stated) | > 20 µM (inactive)
COC(=O)Nc1nc2ccc(C(=O)c3ccccc3)cc2[nH]1 | 0.229 µM
COC(=O)/C(=C1/Oc2cc(C)oc(=O)c2S1)C(F)(F)F | 2.85 µM
CC(=O)OC[C@H]1O[C@@H](n2ncc(=O)[nH]c2=O)[C@H](OC(C)=O)[C@@H]1OC(C)=O | > 20 µM (inactive)
COc1cc([C@@H]2c3cc4c(cc3[C@H](O)[C@H]3COC(=O)[C@H]23)OCO4)cc(OC)c1OC | 0.0349 µM
CCC(NC(=O)Nc1nnc(C(F)(F)F)s1)(C(F)(F)F)C(F)(F)F | 2.22 µM
Clc1ccc(-n2ncc3c(NCc4ccco4)ncnc32)cc1 | 3.88 µM
CCOC(=O)CSC1=C(C#N)C(c2ccc3c(c2)OCO3)CC(=O)N1 (configuration not stated) | 6.58 µM
COc1cccc2c1C(=O)c1c(O)c3c(c(O)c1C2=O)C[C@@](O)(C(C)=O)C[C@@H]3O[C@H]1C[C@H](N)[C@H](O)[C@H](C)O1 | 0.151 µM
Cc1cccc(-c2nnc3n2N=C(c2ccc(Br)cc2)CS3)c1 | > 20 µM (inactive)
N#CC1=C2SCC(O)(c3ccccc3)N2C(=O)CC1c1ccccc1 (configuration not stated) | 0.806 µM

Compound | CC50
CCOc1ccc(C2=Nn3c(nnc3-c3ccccc3OC)SC2)cc1 | 0.0267 µM
O=c1[nH]c(=O)n([C@H]2C[C@H](O)[C@@H](CO)O2)cc1F | 2.73 µM
COc1ccc2c(c1OC)C(=O)N1c3ccccc3C(=O)N(c3ccccc3F)C21 (configuration not stated) | > 20 µM (inactive)
CCCSc1ccc2nc(NC(=O)OC)[nH]c2c1 | 0.39 µM
COc1ccc(C2=Nn3c(nnc3-c3ccccc3)SC2)cc1OC | 5.63 µM
COc1ccc(C2=Nn3c(nnc3-c3ccccn3)SC2)cc1 | 4.78 µM
N#CC1=C(SCC(=O)c2ccc(Cl)cc2)NC2=C(C(=O)CCC2)C1c1ccco1 (configuration not stated) | 2.79 µM
Cc1ccc(NC(=O)CSc2nnc(-c3ccco3)c(-c3ccco3)n2)cc1 | 1.71 µM
N#CC1=C(SCC(=O)c2ccccc2)NC2=C(C(=O)CCC2)C1c1ccco1 (configuration not stated) | 1.28 µM
COc1ccc2c(c1OC)C(=O)O[C@@H]2[C@H]1c2c(cc3c(c2OC)OCO3)CCN1C | > 20 µM (inactive)
Cc1ccc(C(=O)CSC2=C(C#N)C(c3ccco3)C3=C(CCCC3=O)N2)cc1 (configuration not stated) | 2.4 µM
CC(=O)O[C@H]1C(=O)[C@]2(C)[C@H]([C@H](OC(=O)c3ccccc3)[C@]3(O)C[C@H](OC(=O)[C@H](O)[C@@H](NC(=O)c4ccccc4)c4ccccc4)C(C)=C1C3(C)C)[C@]1(OC(C)=O)CO[C@@H]1C[C@@H]2O | 0.0434 µM
COC(=O)CSc1nnc2n(-c3ccc(OC)cc3)c(=O)c3c4c(sc3n12)CCCCC4 | > 20 µM (inactive)
CC(=O)/C(C#N)=C1\NC(=O)C(Cc2ccccc2Cl)S1 (configuration not stated) | > 20 µM (inactive)
CCc1nc(N)nc(N)c1-c1ccc(Cl)cc1 | 2.6 µM
N#CC1=C(N)NC(SCc2ccc(F)cc2)=C(C#N)C12CCCCC2 | 8.19 µM
Fc1ccc2[nH]c3c(N4CCN(Cc5ccc6c(c5)OCO6)CC4)ncnc3c2c1 | 2.71 µM
CCc1cn([C@H]2C[C@H](O)[C@@H](CO)O2)c(=O)[nH]c1=O | > 20 µM (inactive)
COc1cc(C2C(C#N)=C(N)Oc3cc(N)ccc32)cc(OC)c1OC (configuration not stated) | 0.326 µM
CC[C@]1(O)CC2CN(CCc3c([nH]c4ccccc34)[C@@](C(=O)OC)(c3cc4c(cc3OC)N(C=O)[C@H]3[C@@](O)(C(=O)OC)[C@H](OC(C)=O)[C@]5(CC)C=CCN6CC[C@]43[C@@H]65)C2)C1 (some centres not stated) | < 0.003 µM
